The Ki is a dissociation constant, usually derived from enzyme kinetics or from competition with a known ligand. Low readings indicate higher affinity, high ones lower affinity.

For one experiment, the target named is Carbonic anhydrase 2 (Homo sapiens, UniProt P00918).
The target in another experiment is Carbonic anhydrase 1 (Homo sapiens, UniProt P00915).
Carbonic anhydrase 1, sequence (P00915 whole entry): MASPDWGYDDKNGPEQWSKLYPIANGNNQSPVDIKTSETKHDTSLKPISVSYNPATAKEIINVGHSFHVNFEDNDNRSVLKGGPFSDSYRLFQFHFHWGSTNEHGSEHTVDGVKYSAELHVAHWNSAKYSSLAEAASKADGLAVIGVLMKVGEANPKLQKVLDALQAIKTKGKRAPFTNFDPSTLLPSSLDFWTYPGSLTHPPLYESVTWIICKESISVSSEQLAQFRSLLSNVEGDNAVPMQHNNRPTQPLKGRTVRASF

Description for Carbonic anhydrase 1: Inhibitory activity against human Carbonic anhydrase I
Description for Carbonic anhydrase 2: Inhibitory activity against human Carbonic anhydrase II

`CC[C@H](C)[C@H](/N=C(\S)Nc1ccc(S(N)(=O)=O)cc1)C(=O)OCC(=O)NC`: the Ki at Carbonic anhydrase 2 worked out at 5 nM; at Carbonic anhydrase 1 it was 25 nM.

For the compound `CNC(=O)COC(=O)[C@H](CCC(N)=O)/N=C(\S)Nc1ccc(S(N)(=O)=O)cc1`, the inhibitory constant (Ki) at Carbonic anhydrase 2 was 11 nM; at Carbonic anhydrase 1, 53 nM.

In the case of `NS(=O)(=O)c1ccc(NC(=S)N[C@@H](Cc2c[nH]c3ccccc23)C(=O)O)cc1`, the results for the inhibition constant Ki at Carbonic anhydrase 2 and on Carbonic anhydrase 1 were 11 nM and 47 nM, respectively.

On to `CC(C)C[C@H](NC(=S)Nc1ccc(S(N)(=O)=O)cc1)C(=O)O`, for which the figures for the Ki at Carbonic anhydrase 2 and at Carbonic anhydrase 1 were 5 nM and 21 nM, respectively.

With `CNC(=O)COC(=O)[C@H](Cc1c[nH]c2ccccc12)NC(=S)Nc1ccc(S(N)(=O)=O)cc1`, the Ki at Carbonic anhydrase 2 came to 20 nM; at Carbonic anhydrase 1 it was 64 nM.

`NC(=O)CC[C@H](NC(=S)Nc1ccc(S(N)(=O)=O)cc1)C(=O)O`: the Ki worked out at 9 nM at Carbonic anhydrase 2 and 40 nM at Carbonic anhydrase 1.

Take `C[C@H](NC(=S)Nc1ccc(S(N)(=O)=O)cc1)C(=O)O`: the results for the Ki on Carbonic anhydrase 2 and on Carbonic anhydrase 1 were 12 nM and 54 nM, respectively.

Consider `CNC(=O)COC(=O)[C@@H](/N=C(\S)Nc1ccc(S(N)(=O)=O)cc1)C(C)C`, for which the Ki at Carbonic anhydrase 2 amounted to 5 nM; on Carbonic anhydrase 1 it was 31 nM.

Turning to `CSCC[C@H](/N=C(\S)Nc1ccc(S(N)(=O)=O)cc1)C(=O)O`, the inhibition constant (Ki) was 4 nM on Carbonic anhydrase 2 and 27 nM on Carbonic anhydrase 1.

In the case of `NS(=O)(=O)c1ccc(NC(=S)N2CCC[C@H]2C(=O)O)cc1`, the Ki on Carbonic anhydrase 2 was 25 nM; at Carbonic anhydrase 1 it was 110 nM.

Turning to `CNC(=O)COC(=O)[C@H](CCSC)NC(=S)Nc1ccc(S(N)(=O)=O)cc1`, the values for the Ki at Carbonic anhydrase 2 and on Carbonic anhydrase 1 were 5 nM and 31 nM, respectively.

For `NC(=O)C[C@H](/N=C(\S)Nc1ccc(S(N)(=O)=O)cc1)C(=O)O`, the Ki on Carbonic anhydrase 2 is 6 nM; on Carbonic anhydrase 1 it was 27 nM.

Turning to `CC[C@H](C)[C@H](NC(=S)Nc1ccc(S(N)(=O)=O)cc1)C(=O)O`, the values for the Ki on Carbonic anhydrase 2 and on Carbonic anhydrase 1 were 4 nM and 22 nM, respectively.

As to `CC(C)[C@H](NC(=S)Nc1ccc(S(N)(=O)=O)cc1)C(=O)O`, the Ki on Carbonic anhydrase 2 is 5 nM; at Carbonic anhydrase 1 it was 23 nM.

`CNC(=O)COc1ccc(COC(=O)[C@H](C)NC(=S)Nc2ccc(S(N)(=O)=O)cc2)cc1`: the Ki worked out at 16 nM at Carbonic anhydrase 2 and 58 nM on Carbonic anhydrase 1.

With `CNC(=O)COC(=O)[C@H](Cc1ccccc1)NC(=S)Nc1ccc(S(N)(=O)=O)cc1`, the results for the Ki on Carbonic anhydrase 2 and on Carbonic anhydrase 1 were 8 nM and 42 nM, respectively.

`CNC(=O)COC(=O)[C@@H]1CCCN1/C(S)=N\c1ccc(S(N)(=O)=O)cc1`: the Ki at Carbonic anhydrase 2 was 46 nM; at Carbonic anhydrase 1, 197 nM.

As for `NS(=O)(=O)c1ccc(N/C(S)=N/[C@@H](Cc2ccccc2)C(=O)O)cc1`, the Ki was found to be 6 nM on Carbonic anhydrase 2 and 30 nM at Carbonic anhydrase 1.

For the compound `CNC(=O)COC(=O)[C@H](CC(N)=O)/N=C(\S)Nc1ccc(S(N)(=O)=O)cc1`, the Ki on Carbonic anhydrase 2 came to 4 nM; at Carbonic anhydrase 1 it was 29 nM.

For the compound `CNC(=O)COC(=O)[C@H](CC(C)C)/N=C(\S)Nc1ccc(S(N)(=O)=O)cc1`, the Ki on Carbonic anhydrase 2 was found to be 7 nM; on Carbonic anhydrase 1, 23 nM.
